Source: ChEMBL document CHEMBL1201862, “PubChem BioAssay data set” (2004)
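How tested: cells in 96-well plates exposed to compound for 48 hours at five concentrations. At the GI50, growth is halved.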 Activity calls are given as the source filed them. Rule as the data show it: active = GI50 up to about 1.1 µM and inactive = higher.

What was measured:
Experiment in all cases: NCI tumour cell line growth inhibition, 48 h
COLO 205 = test system: COLO 205
HCT-116 = test system: HCT-116
HCT-15 = test system: HCT-15
K562 = test system: K562
MDA-MB-231 = test system: MDA-MB-231
Malme-3M = test system: Malme-3M
OVCAR-8 = test system: OVCAR-8
RPMI-8226 = test system: RPMI-8226
RXF 393 = test system: RXF 393
SK-OV-3 = test system: SK-OV-3
SN12C = test system: SN12C
SW-620 = test system: SW-620
UO-31 = test system: UO-31
HL-60 = test system: HL-60
Hs-578T = test system: Hs-578T
IGROV-1 = test system: IGROV-1
LOX IMVI = test system: LOX IMVI
MDA-N = test system: MDA-N
SNB-75 = test system: SNB-75

| Structure (SMILES) | GI50 (COLO 205) | GI50 (HCT-116) | GI50 (HCT-15) [µM] | GI50 (K562) | GI50 (MDA-MB-231) | GI50 (Malme-3M) | GI50 (OVCAR-8) | GI50 (RPMI-8226) | GI50 (RXF 393) | GI50 (SK-OV-3) | GI50 (SN12C) | GI50 (SW-620) | GI50 (UO-31) | GI50 (HL-60) | GI50 (Hs-578T) | GI50 (IGROV-1) | GI50 (LOX IMVI) | GI50 (MDA-N) | GI50 (SNB-75) |
| --- | --- | --- | --- | --- | --- | --- | --- | --- | --- | --- | --- | --- | --- | --- | --- | --- | --- | --- | --- |
| OCCNC1=Nc2ccc(Cl)cc2C(=S)N2CSC[C@@H]12 | > 100 µM (inactive) | > 100 µM (inactive) | > 100 | > 100 µM (inactive) | > 100 µM (inactive) | > 100 µM (inactive) | > 100 µM (inactive) | > 100 µM (inactive) | > 100 µM (inactive) | > 100 µM (inactive) | > 100 µM (inactive) | > 100 µM (inactive) | > 100 µM (inactive) | – | – | – | – | – | – |
| CCOC(=O)c1c(-c2ccc(O)c(OC)c2)c(C#N)c(=S)n(C2OC(CO)C(O)C(O)C2O)c1-c1ccccc1 (configuration not stated) | > 100 µM (inactive) | > 100 µM (inactive) | > 100 | > 100 µM (inactive) | – | – | > 100 µM (inactive) | 72.3 µM (inactive) | > 100 µM (inactive) | – | > 100 µM (inactive) | > 100 µM (inactive) | > 100 µM (inactive) | > 100 µM (inactive) | > 100 µM (inactive) | > 100 µM (inactive) | > 100 µM (inactive) | > 100 µM (inactive) | – |
| O=C1CC(c2cccc(Br)c2)n2cccc21 (configuration not stated) | > 100 µM (inactive) | > 100 µM (inactive) | 92.9 | 72.3 µM (inactive) | > 100 µM (inactive) | – | > 100 µM (inactive) | > 100 µM (inactive) | > 100 µM (inactive) | > 100 µM (inactive) | > 100 µM (inactive) | > 100 µM (inactive) | 21.5 µM (inactive) | 28.1 µM (inactive) | 28.2 µM (inactive) | 57.3 µM (inactive) | > 100 µM (inactive) | – | 35.3 µM (inactive) |
| CC(=O)OCC1OC(n2c(C)c(C)c(C)c(C#N)c2=S)C(OC(C)=O)C(OC(C)=O)C1OC(C)=O (configuration not stated) | > 100 µM (inactive) | 28.6 µM (inactive) | > 100 | > 100 µM (inactive) | > 100 µM (inactive) | > 100 µM (inactive) | > 100 µM (inactive) | – | 18.6 µM (inactive) | 24.8 µM (inactive) | > 100 µM (inactive) | > 100 µM (inactive) | 14.7 µM (inactive) | > 100 µM (inactive) | – | > 100 µM (inactive) | > 100 µM (inactive) | > 100 µM (inactive) | 80 µM (inactive) |
| Cc1nc(=O)[nH]c2c1C(=O)N(C(C)C)C(NC(C)C)S2 (configuration not stated) | > 100 µM (inactive) | > 100 µM (inactive) | 93.8 | > 100 µM (inactive) | > 100 µM (inactive) | 57.7 µM (inactive) | > 100 µM (inactive) | > 100 µM (inactive) | > 100 µM (inactive) | > 100 µM (inactive) | > 100 µM (inactive) | > 100 µM (inactive) | > 100 µM (inactive) | > 100 µM (inactive) | – | > 100 µM (inactive) | 83.6 µM (inactive) | > 100 µM (inactive) | > 100 µM (inactive) |
| CCN(CC)CCCC(C)Nc1c2cc(OC)cc(C)c2nc2c(C)c(Cl)ccc12 (configuration not stated) | 1.64 µM (inactive) | 1.86 µM (inactive) | 1.78 | 1.83 µM (inactive) | – | 1.85 µM (inactive) | 1.78 µM (inactive) | 2.62 µM (inactive) | 2.09 µM (inactive) | 1.67 µM (inactive) | 1.57 µM (inactive) | 1.85 µM (inactive) | 1.71 µM (inactive) | 2.15 µM (inactive) | – | 1.67 µM (inactive) | 2.02 µM (inactive) | – | 1.68 µM (inactive) |
| CCOC(=O)C(C)Sc1nnc(COc2ccccc2OC)n1-c1ccccc1 (configuration not stated) | > 100 µM (inactive) | 80.7 µM (inactive) | 16.9 | 30.1 µM (inactive) | – | > 100 µM (inactive) | > 100 µM (inactive) | 23.9 µM (inactive) | 52.4 µM (inactive) | > 100 µM (inactive) | > 100 µM (inactive) | 19.2 µM (inactive) | > 100 µM (inactive) | 32.8 µM (inactive) | – | > 100 µM (inactive) | 15.7 µM (inactive) | – | > 100 µM (inactive) |
